Source: BindingDB's records for doi:10.1021/jm00035a014 (University of Paris, 1994)

Each molecule was assayed against Aminopeptidase N (Sus scrofa) (UniProt P15145) (assay: Inhibitory potency against aminopeptidase N (APN)).
Aminopeptidase N (Sus scrofa), sequence (P15145 whole entry, looked up): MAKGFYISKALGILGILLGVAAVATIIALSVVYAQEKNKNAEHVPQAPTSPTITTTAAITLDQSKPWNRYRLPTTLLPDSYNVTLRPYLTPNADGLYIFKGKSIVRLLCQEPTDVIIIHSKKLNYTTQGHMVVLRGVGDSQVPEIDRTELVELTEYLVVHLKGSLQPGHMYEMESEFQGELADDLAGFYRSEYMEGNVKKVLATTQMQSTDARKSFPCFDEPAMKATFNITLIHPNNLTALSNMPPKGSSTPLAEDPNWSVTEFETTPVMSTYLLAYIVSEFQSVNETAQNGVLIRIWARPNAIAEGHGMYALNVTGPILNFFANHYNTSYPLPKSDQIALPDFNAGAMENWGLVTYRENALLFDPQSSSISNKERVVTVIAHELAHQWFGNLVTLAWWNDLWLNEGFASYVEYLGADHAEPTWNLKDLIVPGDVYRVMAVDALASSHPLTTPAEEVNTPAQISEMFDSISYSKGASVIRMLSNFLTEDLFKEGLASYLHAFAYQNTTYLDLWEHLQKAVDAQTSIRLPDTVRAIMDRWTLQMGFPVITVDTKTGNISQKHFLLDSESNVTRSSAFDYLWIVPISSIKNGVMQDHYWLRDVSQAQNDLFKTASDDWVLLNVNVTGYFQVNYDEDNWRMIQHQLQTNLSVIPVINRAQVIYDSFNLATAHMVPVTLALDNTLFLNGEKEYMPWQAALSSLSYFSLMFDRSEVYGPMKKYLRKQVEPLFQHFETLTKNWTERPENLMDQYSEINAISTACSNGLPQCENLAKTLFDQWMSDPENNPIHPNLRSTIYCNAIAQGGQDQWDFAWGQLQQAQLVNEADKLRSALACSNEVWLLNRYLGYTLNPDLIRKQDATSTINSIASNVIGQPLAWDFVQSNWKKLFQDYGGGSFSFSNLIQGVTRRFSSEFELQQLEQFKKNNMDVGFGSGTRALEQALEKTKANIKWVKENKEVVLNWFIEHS

| Structure (SMILES) | IC50 |
| --- | --- |
| NC(CC(=O)O)Cc1ccccc1 (configuration not stated) [3-Amino-4-phenyl-butyric acid] | 800 µM |
| NC(Cc1ccccc1)CP(=O)(O)O (configuration not stated) [1-Benzyl-2-phosphono-ethyl-ammonium] | 500 µM |

Each molecule was assayed against Glutamyl aminopeptidase (Oryctolagus cuniculus) (assay: Inhibition of aminopeptidase A (APA)).

| Structure (SMILES) | Ki |
| --- | --- |
| NC(CS)Cc1ccc(C(=O)O)cc1 (configuration not stated) [2-(4-Carboxy-phenyl)-1-mercaptomethyl-ethyl-ammonium] | 2700 nM |
| NC(CS)CC1CCCC(C(=O)O)C1 (configuration not stated) [2-(3-Carboxy-cyclohexyl)-1-mercaptomethyl-ethyl-ammonium] | > 3000 nM |
| NC(CS)CC1CCC(CC(=O)O)CC1 (configuration not stated) [[4-(2-Amino-3-mercapto-propyl)-cyclohexyl]-acetic acid] | 2800 nM |
| NC(CS)Cc1ccc(CC(=O)O)cc1 (configuration not stated) [[4-(2-Amino-3-mercapto-propyl)-phenyl]-acetic acid] | 2200 nM |
| NC(CS)c1cccc(C(=O)O)c1 (configuration not stated) [1-(3-Carboxy-phenyl)-2-mercapto-ethyl-ammonium] | 2400 nM |
| NC(CS)CC1CCC(C(=O)O)CC1 (configuration not stated) [4-(2-Amino-3-mercapto-propyl)-cyclohexanecarboxylic acid] | 1900 nM |
| NC(CS)c1ccc(C(=O)O)cc1 (configuration not stated) [4-(1-Amino-2-mercapto-ethyl)-benzoic acid] | > 3000 nM |
| N[C@H](CCS)CCC(=O)O [(S)-4-Amino-6-mercapto-hexanoic acid] | 2000 nM |
| N[C@@H](CS)CCC(=O)O [(R)-4-Amino-5-mercapto-pentanoic acid] | 2300 nM |
| NC(CS)Cc1cccc(C(=O)O)c1 (configuration not stated) [3-(2-Amino-3-mercapto-propyl)-benzoic acid] | 840 nM |
